The data set relates to DIM2. As to the kind of experiment: In vitro DNA methylation kinetics, substrate specificity of DIM2. The data set is classed as biochemical, Neurospora Crassa. Also noted: unit not given here. The conditions noted are these: Sup Fig. 1f, 0.25 µM DIM2, 1.0 µM DNA, 1.0 µM H3K9me3 peptide, 0.5 µM HP1, pH 8.0, 30 °C. Here is the method: In vitro DNA methylation assay was performed in a 20-µL reaction mixture. For the substrate specificity assay, the following DNA duplexes were used as substrates: CG DNA (Upper strand: 5’-[…]-3’), hemimethylated CG DNA (Upper strand: 5’-TAAATTTXGATTAATAAT-3’, X = 5-methylcytosine; Lower strand: 5’-[…] -3’), CHG DNA (Upper strand: 5’-[…]-3’), and CHH DNA (Upper strand: 5’-[…]-3’). The reaction mixture contains 0.25 µM DIM2, 1.0 µM DNA duplex, 1.0 µM synthesized H3K9me3 peptide (residues 1-24 of H3 plus a C-terminal tryptophan), 0.5 µM HP1, and 0.56 µM S-adenosyl-L-[methyl-^3H] methionine with a specific activity of 18 Ci/mmol (PerkinElmer) in buffer containing 50 mM Tris-HCl (pH 8.0), 100 mM NaCl, 0.05% β-mercaptoethanol, 5% glycerol, and 200 µg/mL BSA. For the rest of the DNA methylation assay, each reaction mixture contains 1.0 µM DIM2, 1.0 µM (CAT)12/(ATG)12 DNA duplex and 0.56 µM S-adenosyl-L-[methyl-^3H] methionine with a specific activity of 18 Ci/mmol (PerkinElmer) in buffer containing 50 mM Tris-HCl (pH 8.0), 100 mM NaCl, 0.05% β-mercaptoethanol, 5% glycerol, and 200 µg/mL BSA. In addition, 1.0 µM synthesized H3K9me3 or H3K9me0 peptide (residues 1-24 of H3 plus a C-terminal tryptophan) and/or 2 µM HP1 protein was included to evaluate the effect of H3 and HP1 regulation. The reaction mixture was incubated at 30 °C for 30 min, unless indicated otherwise, before being quenched by the addition of 5 µL of 10 mM cold SAM. After the reaction, 8 μL of the mixtures was loaded onto Hybond N nylon membrane (GE Healthcare), which was left to dry out at room temperature. The membrane was subsequently washed with 0.2 M ammonium bicarbonate (pH 8.2) two times (20 min per time), deionized water (20 min) once, and 95% ethanol (5 min) once. After air dried, the membrane carrying each sample was transferred into a vial containing 3 mL scintillation buffer (Fisher). The tritium scintillation was measured and recorded by a Beckman LS6500 counter. Each the reaction was repeated three times.

Where [1] appears, read: reaction time 0 min, replicate 1.
[2] abbreviates: reaction time 0 min, replicate 2.
The mark [3] stands for this setting: reaction time 0 min, replicate 3.
The mark [4] stands for this setting: reaction time 15 min, replicate 1.
[5] abbreviates: reaction time 15 min, replicate 2.
Setting [6] is: reaction time 15 min, replicate 3.
Where [7] appears, read: reaction time 30 min, replicate 1.
[8] abbreviates: reaction time 30 min, replicate 2.
[9] abbreviates: reaction time 30 min, replicate 3.

Consider “CG: CG DNA (Upper strand: 5’-ATTATTAATCGAAATTTA-3’) (DNA, backbone not given here; DNA duplex substrate for methylation assay)”, for which the DNA methylation kinetics is given as 0.019 under setting [1]; 0.03 under setting [2]; 0.038 under setting [3]; 0.476 under setting [4]; 0.828 under setting [5]; 0.621 under setting [6]. Moreover, the DNA methylation kinetics under setting [7] amounted to 1.426, the DNA methylation kinetics under setting [8] is 1.174 and the DNA methylation kinetics under setting [9] amounted to 1.115.

On to “CHH: CHH DNA (Upper strand: 5’-ATTATTAATCTAAATTTA-3’) (DNA, backbone not given here; DNA duplex substrate for methylation assay)”, for which the DNA methylation kinetics under setting [1] was 0.004; the DNA methylation kinetics under setting [2] is recorded as 0.003; the DNA methylation kinetics under setting [3] is reported as 0.026; the DNA methylation kinetics under setting [4] is reported as 0.184; the DNA methylation kinetics under setting [5] amounted to 0.154; the DNA methylation kinetics under setting [6] is listed as 0.169. Moreover, the DNA methylation kinetics under setting [7] worked out at 0.346, the DNA methylation kinetics under setting [8] worked out at 0.291 and the DNA methylation kinetics under setting [9] turned out to be 0.235.

“CHG: CHG DNA (Upper strand: 5’-ATTATTAATCTGAATTTA-3’) (DNA, backbone not given here; DNA duplex substrate for methylation assay)” showed a DNA methylation kinetics under setting [1] of 0.037; a DNA methylation kinetics under setting [2] of 0.044; a DNA methylation kinetics under setting [3] of 0.013; a DNA methylation kinetics under setting [4] of 1.24; a DNA methylation kinetics under setting [5] of 1.116; a DNA methylation kinetics under setting [6] of 1.338. This substance gave a DNA methylation kinetics under setting [7] of 1.866, a DNA methylation kinetics under setting [8] of 1.872 and a DNA methylation kinetics under setting [9] of 1.906.

For the origin of these results see paper PMC11315935, “Multi-layered heterochromatin interaction as a switch for DIM2-mediated DNA methylation” (Nature Communications, 2024).
